The values below come from patent US20240269292A1.

Series [1] in a line: Release assay of two formulations of EY005 prodrugs in the extended release system. It is filed as physicochemical. An excerpt: FIG. 36 illustrates data from a release assay of two representative formulations of EY005 prodrugs in the extended-release drug delivery system, with different durations of release.
For example, FIG. 36 illustrates release kinetics for examples of two distinct formulations of EY005 prodrugs in the complexation-based XRDDS, each with different conjugation moieties, as described herein: EY005-octadecyl (formulation 1) and EY005-8-mer peptide (formulation 2).

The target in another series is Albumin (Homo sapiens, UniProt P02768). The series is described as follows: Complexation of EY005-stearyl with complexation agent in methyl laurate, HPLC of pulled-down particulates and medium. The format is binding. The note with it: 1 hour. As to the method: As described herein, formation of drug-complex particulates in which the complexation agent has high avidity for the drug can be quantified and verified experimentally. For example, the MTT-prodrug EY005-stearyl was admixed with known quantities of selected individual complexation agents. The EY005-stearyl-complexation agent mixture was then added to an appropriate dispersal medium (in this case, methyl laurate), and centrifuged to “pull down” or separate EY005-stearyl bound to complexation agent from unbound prodrug present in the dispersal medium. HPLC analysis of pulled down particulates and dispersal medium from EY005-stearyl content determined the fraction of MTT-prodrug that is bound to the complexation agent and calculation of the Kd value, the unbound to bound coefficient, for the MTT-prodrug/complexation agent pair. […]
Sequence of Albumin (P02768 25-609, species assumed): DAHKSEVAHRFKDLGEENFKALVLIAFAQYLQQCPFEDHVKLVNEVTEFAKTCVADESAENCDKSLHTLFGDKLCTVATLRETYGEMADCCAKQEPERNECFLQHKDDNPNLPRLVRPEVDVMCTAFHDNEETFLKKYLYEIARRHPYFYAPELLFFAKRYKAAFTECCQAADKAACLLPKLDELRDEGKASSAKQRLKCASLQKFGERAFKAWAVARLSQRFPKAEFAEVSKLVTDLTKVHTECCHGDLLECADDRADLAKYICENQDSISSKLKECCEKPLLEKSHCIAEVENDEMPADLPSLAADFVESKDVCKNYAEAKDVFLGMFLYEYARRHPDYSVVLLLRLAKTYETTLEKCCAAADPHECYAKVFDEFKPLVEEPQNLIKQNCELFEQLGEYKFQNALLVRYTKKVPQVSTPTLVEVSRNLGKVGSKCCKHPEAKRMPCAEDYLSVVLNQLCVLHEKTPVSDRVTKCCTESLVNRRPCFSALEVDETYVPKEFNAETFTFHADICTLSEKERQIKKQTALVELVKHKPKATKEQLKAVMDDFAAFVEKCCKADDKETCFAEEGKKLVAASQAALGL
As described herein, formation of drug-complex particulates in which the complexation agent has high avidity for the drug can be quantified and verified experimentally. For example, the MTT-prodrug EY005-stearyl was admixed with known quantities of selected individual complexation agents. […]
Table 2 illustrates an example of a EY005-stearyl prodrug solubilized in methyl laurate in which various complexation agents were added, mixed, and incubated for 1 hour. The quantity of EY005-stearyl prodrug complexed with each complexation agent was determined by HPLC. […]

A further series relates to carboxyesterase. As to the kind of experiment: In vitro cleavage of the prodrug ester bond by carboxyesterase (HPLC). The note with it: 37° C. in vitro, carboxyesterase 0.1 μg/mL. The format is in vitro ADME. As to the method: One example of an EY005-prodrug includes EY005-stearyl (FIG. 16A), wherein EY005 is linked via ester bond to stearyl alcohol, one member from the group of long-chain saturated fatty alcohols. On cleavage of the ester bond, the prodrug EY005-stearyl releases the EY005 MTT. […] Upon addition of EY005-stearyl prodrug to phosphate-buffered saline solution at 37° C. without esterase, the ester bond of the EY005-stearyl prodrug cleaves more slowly (˜36 hours) by hydrolysis (FIGS. 17A and 17C).
EY005-stearyl was incubated at 37° C. in vitro with carboxyesterase (0.1 μg/mL), to simulate the ocular physiologic environment and the type of esterase that is readily abundant within the vitreous. […] Upon addition of EY005-stearyl prodrug to phosphate-buffered saline solution at 37° C. without esterase, the ester bond of the EY005-stearyl prodrug cleaves more slowly by hydrolysis (FIG. 17C).
FIG. 18 illustrates theoretical data from an in vitro esterase assay showing rapid ester cleavage of two different EY005 prodrugs upon exposure to the esterase.
One specific example of EY005-prodrug includes EY005-stearyl (depicted in FIG. 16A), wherein EY005 is linked via ester bond to stearyl alcohol, one member from the group of long-chain saturated fatty alcohols. On cleavage of the ester bond, the prodrug EY005-stearyl releases the EY005 MTT. […]

Series [2] deals with retinal pigment epithelium (RPE) cells. The series is described as follows: Actin cytoskeleton disorganization (phalloidin) in HQ-exposed RPE cells. The format is cell-based. Particulars: 5 μM. As to the method:
(§1) Cells are then treated with drug (or control phosphate-buffered saline (PBS) solution) and assayed for effects on mitochondrial dysfunction and other cellular changes.
(§2) Mitochondrial dysfunction can be modeled using in vitro cell culture systems relevant to retinal disease. In one such system, retinal pigment epithelium (RPE) cells are cultured to post-confluence to establish a differentiated cell monolayer and are then assayed for mitochondrial dysfunction and effect of drugs for treatment of mitochondrial dysfunction (FIG. 5). In this model, mitochondrial dysfunction is induced by two exposures to nonlethal doses of hydroquinone (HQ) at day −3 and day 0. Hydroquinone (HQ), a well-known environmental toxicant ubiquitously present in Western lifestyle, is a biochemical inducer of mitochondrial dysfunction. […] Cells are then treated with a drug of interest (mitochondrial targeted peptide drug or a prodrug thereof) or control (phosphate-buffered saline (PBS) solution and assayed for effects on mitochondrial dysfunction, as measured by microscopy of flavoprotein autofluorescence (a measure of mitochondrial electron transport chain complex II decompensation) (FIG. 6).

For series [3] the test system is unchanged. As to the kind of experiment: HQ-induced mitochondrial dysfunction in RPE cells (flavoprotein autofluorescence). It is filed as cell-based. Particulars: HQ-exposed RPE cells, versus elamipretide or native EY005. As to the method:
as §1, §2

Series [4] in a line: Hydrophobicity and aqueous solubility. The format is physicochemical.
Series [5] in a line: Accelerated in vitro release assay, methyl laurate dispersal medium. The format is physicochemical. An excerpt: In all cases, all EY005 was rapidly released, in some cases within hours, and in all cases by day 3.
A short description of series [6]: Complexation of EY005-stearyl with complexation agent in methyl laurate, HPLC of pulled-down particulates and medium. It is filed as physicochemical. Particulars: 1 hour. As to the method:
As described herein, formation of drug-complex particulates in which the complexation agent has high avidity for the drug can be quantified and verified experimentally. For example, the MTT-prodrug EY005-stearyl was admixed with known quantities of selected individual complexation agents. The EY005-stearyl-complexation agent mixture was then added to an appropriate dispersal medium (in this case, methyl laurate), and centrifuged to “pull down” or separate EY005-stearyl bound to complexation agent from unbound prodrug present in the dispersal medium. HPLC analysis of pulled down particulates and dispersal medium from EY005-stearyl content determined the fraction of MTT-prodrug that is bound to the complexation agent and calculation of the Kd value, the unbound to bound coefficient, for the MTT-prodrug/complexation agent pair. Using this type of assay, Kd values can be generated to identify the unbound to bound drug ratio for specific MTT-prodrug/complexation agent pairs in a selected dispersal medium (see, e.g., Table 2, below).
As described herein, formation of drug-complex particulates in which the complexation agent has high avidity for the drug can be quantified and verified experimentally. For example, the MTT-prodrug EY005-stearyl was admixed with known quantities of selected individual complexation agents. […] HPLC analysis of pulled down particulates and dispersal medium from EY005-stearyl content determined the fraction of MTT-prodrug that is bound to the complexation agent (binding capacity) and calculation of the Kd value, the unbound to bound coefficient, for the MTT-prodrug/complexation agent pair. […]
Table 2 illustrates an example of a EY005-stearyl prodrug solubilized in methyl laurate in which various complexation agents were added, mixed, and incubated for 1 hour. The quantity of EY005-stearyl prodrug complexed with each complexation agent was determined by HPLC. Kd values were calculated as [unbound]/[bound] fraction prodrug under each condition. Binding capacity was calculated as the μg EY005-stearyl complexed per mg complexation agent.

The nature of series [7]: Ocular tissue levels of elamipretide in rabbits after subcutaneous or intravitreal administration. It is filed as in vivo, rabbit. As to the method: For example, maximal systemic dosing of elamipretide is 40 mg daily delivered by subcutaneous route of administration, or approximately […]. […] Meanwhile, peak retina levels following intravitreal injection of 15 μg elamipretide is ˜15 μM. Thus, retinal bioavailability of mitochondrial-targeted peptides following systemic administration of a maximally tolerated dose is suboptimal as compared to intravitreal administration. […] The drug clears from the eye in just a few days, and once a week intravitreal injection in humans is not practical or feasible for treatment of disease in clinical practice. Thus, an extended release drug delivery system is essential to achieve sustained, high levels of drug within the vitreous, retina, and RPE.
Systemic delivery of mitochondrial targeted tetrapeptides by SQ injection have suboptimal efficacy in human patients due to insufficient retinal bioavailability. Sufficient levels of the mitochondrial-targeted tetrapeptides cannot be achieved at the target tissue site (i.e., retina). For example, in humans, maximal dosing is 40 mg SQ (˜0.3-0.9 mg/kg), a dose that is limited by SQ injection site toxicity (FIG. 3). In mice, effective dosing required 3 mg/kg, which is 3-10 fold greater than the mass-adjusted dose in humans. Peak plasma levels are also limited by the drug's rapid blood clearance, and the blood-eye barrier may also impede retinal penetration. […] Thus, higher retinal and choroidal drug levels with continuous drug exposure are desirable.

The test system of series [8] is patients with dry AMD. As to the kind of experiment: ReCLAIM clinical trial in patients with dry AMD. Particulars: subcutaneous daily (40 mg). It is filed as in vivo, human. As to the method: FIG. 3 illustrates summary results of the ReCLAIM study, a phase 1/2 clinical trial of systemically administered (40 mg subcutaneous daily) elamipretide in two cohorts of patients with dry AMD: 1) noncentral geographic atrophy (GA) and 2) high-risk drusen.

The test system of series [9] is retinal pigment epithelium (RPE) cells. Particulars: preclinical in vitro models of dry AMD; cited from earlier work.
The subject of series [10] is patients with dry AMD. The note with it: subcutaneous, once daily; limited by local injection site reactions; cited from earlier work.
The conditions of series [11]: human, SQ; cited from earlier work.
Series [12] relates to sub-RPE deposits and visual function. As to the kind of experiment: APOE4 + high fat diet (HFD) mouse model of dry AMD. It is filed as in vivo. The note with it: 3 mg/kg subcutaneous. As to the method: For example, FIG. 2A illustrates the reversal of pre-existing RPE mitochondrial dysfunction and sub-RPE deposits in an ApoE4 mouse model by high-dose elamipretide administered systemically by subcutaneous (SQ) administration (3 mg/kg […]). Aged ApoE4 mice fed a high-fat diet (HFD) develop sub-RPE deposits that reflect the pathobiology of subRPE drusen in patients with dry AMD. ApoE4 mice were treated with elamipretide (n=5; 3 mg/kg SQ daily) or vehicle (n=5) for 4 weeks, continuing HFD from prior 3 mos. […] These untreated mice had thick, severe deposits.

Entries after “also recorded” stand apart in the source; their conditions may differ. Non-standard residues stand in square brackets, D forms with d. Residues, ends and D or L forms follow the SMILES beside them. *: point of attachment. Dmt = Cc1cc(O)cc(C)c1C[C@H](N)C(=O)O; X1 = CCCCCCCCCCCCCCCCCCO*

`CCCCCCCCCCCCCCCCCCOC(=O)[C@H](Cc1ccccc1)NC(=O)[C@H](CCCCN)NC(=O)[C@H](Cc1c(C)cc(O)cc1C)NC(=O)[C@H](N)CCCNC(=N)N` [EY005-stearyl, H-d-Arg-DMT-Lys-Phe(-O)-octadecyl] (H-[dR][Dmt]KF-X1): the Release kinetics profile entry in series [1] (FIG. 36) is reported as “longer initial early burst”. In addition, the Durability of release in [1] (two-phase kinetics) came to 120 days. The “μg EY005-stearyl complexed per mg complexation agent” value on Albumin is 4.5 μg per mg; in series [6] (Cyclodextrin gamma) it was 2.3 μg per mg; in series [6] (Lecithin) it was 9.5 μg per mg; in [6] (Silica microbeads) it was 0.2 μg per mg. Moreover, the “cleavage of the prodrug ester bond, releasing EY005” value in the series on carboxyesterase is recorded as “rapid cleavage of the prodrug ester bond”. Besides, the “Reversal of actin cytoskeleton disorganization” value in series [2] is on record as “normalized actin cytoskeleton dysfunction”. The “Potency for reversal of mitochondrial dysfunction relative to comparator” value in [3] was “efficacy equivalent to treatment with EY005 native peptide”. The Hydrophobicity result in series [4] is “hydrophobic”. In addition, in series [5] (magnesium stearate and albumin together), the “Release rate of EY005” value is listed as “intermediate between that of formulations using either complexation agent alone”. Besides, the “Release of EY005 into media” value in series [5] (no complexation agent) and in series [5] (silica microbeads) was “rapid release” throughout.
In the case of `Cc1cc(O)cc(C)c1C[C@H](NC(=O)[C@H](N)CCCNC(=N)N)C(=O)N[C@@H](CCCCN)C(=O)N[C@@H](Cc1ccccc1)C(N)=O` [elamipretide, H-d-Arg-Dmt-Lys-Phe-NH2] (H-[dR][Dmt]KF-NH2), the “peak retina levels following intravitreal injection” value in series [7] (intravitreal injection of 15 μg) is roughly 15 µM. In series [7] (rabbit, subcutaneous 1 mg/kg), the “choroid levels after 4 hours” value is listed as “undetectable”, the “drug in the retina after subcutaneous administration” value is given as “no drug is detected in the retina” and the “peak choroid levels at 1 hour” value is reported as roughly 50 nM. For the same compound, in the series on patients with dry AMD [8], the “Low-luminance visual acuity / visual function” value is given as “general mean trend toward improvement in multiple metrics of visual function”. Besides, the Aqueous solubility entry in [4] (native form) is “high aqueous solubility”. Moreover, the “Reversal of mitochondrial dysfunction in RPE cell culture” value in series [9] is reported as “potent for reversal of mitochondrial dysfunction”. In addition, in the series with patients with dry AMD [10], the “maximally tolerated dose in humans” value is on record as 40 mg. Moreover, the Dose-limiting toxicity result in series [11] is recorded as “local injection site reactions”. Besides, the “visual function (ERG B-wave amplitudes)” value in series [12] is “increased B-wave amplitudes; also recorded: partially improved visual function”.
